We go through 6 molecules from patent US20250332139A1, “PS[…] AND THEIR USE FOR TREATING […] AND NE[…] DISORDERS” (Transcend Therapeutics, Inc., priority 2021, published 2025).

Molecules are shown by their SMILES. Like-named read-outs stand apart in the source and are kept apart here.

The test system of series [1] is Sprague Dawley rats. Description: Forced Swim Test (FST). It counts as in vivo, rat. The source says:
The Forced Swim Test (FST) is a classic, and the most used preclinical behavioral assay to screen compounds with antidepressant-like activity and has high predictive and face validity (Porsolt et al. (1977) Nature 266:730; Borsini and Meli (1988) Psychopharmacology 94:147). The premise of the FST is that when rats are placed into a cylinder filled with water, they will initially try to escape, but over time will become immobile. This increased immobility reflects behavioral despair, modeling a depressive-like state.
Forced Swim Test (FST): In the FST trial, rats were placed in a circular plexiglass container filled with water, with no means of escape. Water temperature was maintained at 22-25° C. and changed for every animal. After an acclimation period, rats were timed for inactivity (failure to struggle), activity, swim time and climbing time. Day 1 consisted of a 15 min acclimation trial, and Day 2 (24 h later) consisted of the 5 min test. A time sampling procedure was employed where animals were observed every 5 sec and scored for immobility, swimming, or climbing. Fluoxetine (10 mg/kg, IP, Sigma Aldrich) or 0.9% sterile saline vehicle (vehicle 3X group) were administered 23.5, 5, and 1 h before testing in the FST. […] The experimenter was blinded to treatment.
Forced Swim Test: In the FST trial, rats were placed in a circular plexiglass container filled with water, with no means of escape. Water temperature was maintained at 22-25° C. and changed for every animal. After an acclimation period, rats were timed for inactivity (failure to struggle), activity, swim time and climbing time. Day 1 consisted of a 15 min acclimation trial, and Day 2 (24 h later) consisted of the 5 min test. A time sampling procedure was employed where animals were observed every 5 sec and scored for immobility, swimming, or climbing. Fluoxetine (10 mg/kg, IP, Sigma Aldrich) or 0.9% sterile saline vehicle (vehicle 3X group) were administered 23.5, 5, and 1 h before testing in the FST. 2C-B (2.5, 10, or 20 mg/kg, IP, Cayman Chemical) or 0.9% saline vehicle (vehicle 1X group) were administered 30 min prior to FST testing. The experimenter was blinded to treatment.
Drug Treatment: Fluoxetine (10 mg/kg, IP, Sigma Aldrich) or 0.9% sterile saline vehicle were administered 23.5, 5, and 1 h before testing in the FST. […] Control animals received fluoxetine alone, methylone alone, or saline vehicle.
Forced Swim Test: In the FST trial, rats were placed in a circular plexiglass container filled with water, with no means of escape. Water temperature was maintained at 22-25° C. and changed for every animal. After an acclimation period, rats were timed for inactivity (failure to struggle), activity, swim time and climbing time. The experimenter and scorer were blind to treatment group. Day 1 consisted of a 15 min acclimation trial, and Day 2 (24 h later) consisted of the 5 min test. A time sampling procedure was employed where animals were observed every 5 sec and scored for immobility, swimming, or climbing.
The FST was performed and scored by an experimenter blind to treatment group according to standard protocols and based on a “modified FST” procedure (Slattery and Cryan (2012) Nat Protoc, 7:1009). Briefly, rats were placed in a circular plexiglass container (29.2 cm diameter, 49.5 cm height) filled with water to a depth of 30 cm so rats could not support themselves by touching the bottom of the tank. Water was maintained at 22-25° C. and was changed for every animal. Day 1 (Training) consisted of a 15 min acclimation trial, and Day 2 (Testing, 24 h later) consisted of the 5 min test. A time sampling procedure was employed where animals were observed every 5 seconds for the duration of the test session (60 counts or 5 minutes) and scored for immobility (defined as the failure to struggle), swimming (defined as a circular movement around the tank), or climbing (defined as an upwards escape behavior). […]

In a further series the test system is C57Bl/6 mice. Description: Cisplatin CIPN model, von Frey test. It counts as in vivo, mouse. As for the experimental part: Cisplatin, a platinum-based chemotherapy agent has been used to reduce pain thresholds in a model of CIPN. Effects of acute (single higher dose) or sub-chronic (7 days repeated lower dose) 2C-B on pain thresholds were investigated in cisplatin-treated animals compared with vehicle or cisplatin-treated controls.
Methods: Male C57Bl/6 mice aged 12-16 weeks were used. Cisplatin (2.5 mg/kg) or vehicle was administered on days 1-5 and 11-15.
Vehicle, sub-chronic 2C-B (5 mg/kg once daily days 17-23) or acute 2C-B (20 mg/kg once on day 17) was then administered IP (N=16-18/group). VonFrey testing took place on day 17 (30 min post-dose) and days 21 and 24 (pre-dose) to monitor the effects of 2C-B in cisplatin treated animals, compared with animals receiving cisplatin+vehicle or vehicle+vehicle.
For von Frey measurements, animals were placed into wire bottom cubicles with opaque Plexiglas walls, allowing access to the underside of their paws. Animals were habituated to this environment for at least 30 minutes before the start of the von Frey filament application. Static allodynia was measured using Semmes-Weinstein von Frey filaments (Stoelting, Wood Dale, IL). Mechanical allodynia was tested by touching the plantar surface of the animals' right and left hind paws with von Frey filaments which deliver a calibrated amount of force (0.07, 0.16, 0.4, 0.6. 1.0, 2.0, 4.0, 6.0 g). […]

Another series deals with experienced drug users. The conditions noted are these: cited from earlier work.
Series [2] concerns Sprague Dawley rats. To be noted: previous literature reports (Hibicke 2020; Yang 2013; Tizabi 2012); cited from earlier work.
Series [3] concerns serotonergic terminals in the cortex and hippocampus. The conditions noted are these: (±)-MBDB.HCl 25 mg/kg IP every 12 hours for 4 days, 2 weeks post-treatment; cited from earlier work.
The subject of another series is C57BL/6J mice. Description: Fear extinction paradigm (PTSD mouse model). The class given is in vivo. To be noted: MBDB 5 mg/kg IP, day 2. The text has this: Effective PTSD treatments facilitate the disassociation between a traumatic memory and the patient's fear response, making cues for the traumatic memory evoke less of a fear response. This is modeled in the mouse fear extinction paradigm (see FIG. 9A) which takes place over 3 days. On day 1 (fear conditioning), mice are trained to acquire a “traumatic memory,” namely associating the conditioned stimulus (CS, tone) to the unconditioned stimulus (US, foot shock). On day 2 (extinction training), they are trained to forget the traumatic memory association by presenting the CS 6 times (with no US) in a novel environment. On day 3 (extinction recall), the mice are “asked” if that tone (CS) still elicits a fearful response, as measured by the time spent freezing when the tone is presented. Less time freezing means better extinction recall. Drugs that improve extinction recall reduce freezing time on day 3, and, therefore, show potential as a PTSD treatment.
Methods: Cued fear conditioning was performed in C57BL/6J mice. On day 1, animals were placed in the chambers and presented with a training session (CS-US pairing). The training consisted of a 2-minute habituation followed by a 30-second, 80 dB tone; during the last 2 seconds of the tone animals received a 1 mA foot shock. This US-CS procedure occurred once for a total of one paired presentation of tone and shock. Freezing behavior (immobility) was recorded in 5-10-see intervals during the session. Percent baseline freezing behavior was determined in the 2-minute habituation period. On day 3, animals were placed in context B, in which tactile and odor cues differed from context A. Following a 2 minute acclimation period animals received 4×30 sec presentations of the CS (tone) in the absence of the US (footshock), with a 45 sec interval between presentations. Freezing was recorded in 5-10-see intervals to measure baseline freezing response to the altered context, and freezing response to each tone cue presentation. […] On day 4 (Post-Extinction Testing in Drug-Free State), animals were placed in Context B. Following a 2 min acclimation period, animals received 4×30 sec extinction tone duration presentations of the CS (tone) in the absence of the US (footshock), with a 45 sec interval between presentations. Freezing was recorded in 5-10-see intervals to measure baseline freezing response to the altered context, and freezing response to each tone cue presentation.

Series [4] addresses T1, Human serotonin 5HT2B receptor (Homo sapiens, UniProt P41595).
T1 construct: host or cells: receptor-expressing membranes
Description: 5HT2B competitive radioligand binding. The conditions noted are these: ratio of Ki values. As for the experimental part:
Human serotonin 5HT2B receptor membrane preparations were divided into aliquots. On the day of the assay, membranes were diluted at 1:200 in incubation buffer. […] To each well was added 150 μL membrane preparation, 50 μL test compound, non-specific compound, or buffer alone, as well as 50 μL radioligand. The plate was incubated at 35° C. for 90 minutes with gentle agitation. […] For each concentration of drug, non-specific binding was subtracted from total binding to give specific binding. […] Ki was subsequently calculated using the ChengPrusoff equation.

T1 sequence (P41595 whole entry): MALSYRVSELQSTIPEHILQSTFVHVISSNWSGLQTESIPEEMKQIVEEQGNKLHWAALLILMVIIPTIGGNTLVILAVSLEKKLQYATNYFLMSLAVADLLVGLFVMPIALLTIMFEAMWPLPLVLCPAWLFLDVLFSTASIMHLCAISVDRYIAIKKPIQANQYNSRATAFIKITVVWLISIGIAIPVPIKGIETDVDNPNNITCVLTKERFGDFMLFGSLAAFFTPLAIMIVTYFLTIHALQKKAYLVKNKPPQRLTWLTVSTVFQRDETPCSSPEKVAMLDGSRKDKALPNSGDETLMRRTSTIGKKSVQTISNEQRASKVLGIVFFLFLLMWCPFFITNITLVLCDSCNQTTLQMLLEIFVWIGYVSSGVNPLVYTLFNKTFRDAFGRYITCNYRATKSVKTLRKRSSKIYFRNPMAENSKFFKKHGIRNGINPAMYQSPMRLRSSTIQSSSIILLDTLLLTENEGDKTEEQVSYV

For the molecule `COc1cc(CCN)c(OC)cc1Br` [2C-B, 4-Bromo-2,5-dimethoxyphenethylamine], the climbing result with Sprague Dawley rats [1] (2C-B high-dose group (20 mg/kg IP)) is listed as “significantly decreased”. For the same molecule, the swimming result in the series on Sprague Dawley rats [1] (2C-B single dose IP 30 min before test) is recorded as “significant increase in swimming”. In addition, the “effect of repeated doses” value in the series on C57Bl/6 mice (5 mg/kg 2C-B once daily days 17-23) is “sustained beneficial effect”. The “pain thresholds in cisplatin-treated animals” value in the series with C57Bl/6 mice (single dose 5 or 20 mg/kg IP, within 30 min, day 17) is on record as “significantly increased”. Besides, the adverse effects result in the series with experienced drug users (self-administered 2C-B, 10 to 20 mg) is listed as “no serious adverse effects”.
`CCN(CC)C(=O)[C@@H]1C=C2c3cccc4[nH]cc(c34)C[C@H]2N(C)C1` [LSD, lysergic acid-N,N-diethylamide]: in the series with Sprague Dawley rats [2], the reduction in immobility is 38%.
Take `CCC(Cc1ccc2c(c1)OCO2)NC` (centres unmarked) [MBDB, N-methyl-1-(1,3-benzodioxol-5-yl)-2-aminobutane]: the “serotonergic terminals destroyed in the cortex and hippocampus” value in series [3] is recorded as 55-60%. In addition, the immobility result in the series with Sprague Dawley rats [1] (MBDB 5-30 mg/kg IP, 30 min before test) is listed as “significantly reduced immobility”. In addition, in the series with C57BL/6J mice, the “extinction acquisition, first trial of extinction training” value is on record as “improved extinction acquisition” and the locomotor activity entry is on record as “small, but significant increase in locomotor activity”. Further, in the series with experienced drug users (self-administered MBDB, 100 to 300 mg), the adverse effects result is on record as “no serious adverse effects”.
For `CC(N)Cc1ccc2c(c1)OCO2` (centres unmarked) [MDA], the “times greater affinity for the 5HT2B receptor compared with methylone” value in series [4] turned out to be 37 times.
Consider `CNCCC(Oc1ccc(C(F)(F)F)cc1)c1ccccc1` (centres unmarked) [fluoxetine, reference compound], for which the swimming behavior result in the series on Sprague Dawley rats [1] (Example 8, fluoxetine 10 mg/kg IP x3) is “significantly increased swimming behavior”.
For `CN(C)CCc1c[nH]c2cccc(OP(=O)(O)O)c12` [psilocybin], in the series on Sprague Dawley rats [2], the reduction in immobility is given as 67%.
